The source of these data is patent US20110020312A1, “METHODS FOR TREATMENT OF METABOLIC DISORDERS USING EPIMETABOLIC SHIFTERS, MULTIDIMENSIONAL INTRACELLULAR MOLECULES, OR ENVIRONMENTAL INFLUENCERS” (priority 2009, published 2011).

One assay concerns Caspase-3. Description: Western blot of building block components, Caspase-3 expression in Skmel-28 melanoma cells. It counts as cell-based. The method, then:
(§1) Skmel-28 melanoma cells were cultured in DMEM/F12 supplemented with 5% Fetal Bovine Serum (FBS) and 1× final concentration of Antibiotics. The cells were grown to 85% confluency and treated with building block components for 3, 6, 12 and 24 hours. The cells were then pelleted and a Western blot analysis was performed.
(§2) The test building block components included L-Phenylylalanine, DL-Phenylyalanine, D-Phenylylalanine, L-Tyrosine, DL-Tyrosine, D-Tyrosine, 4-Hydroxy-phenylpyruvate, phenylacetate, 3-methoxy-4-hydroxymandelate (vanillylmandelate or VMA), vanillic acid, 4-hydroxy-benzoate, pyridoxine, panthenol, mevalonic acid, Acetylglycine, Acetyl-CoA, Farnesyl, and 2,3-Dimethoxy-5-methyl-p-benzoquinone.
(§3) In the Western Blot Analysis, the cells were pelleted in cold PBS, lysed, and the protein levels were quantified using a BCA protein assay. The whole cell lysate was loaded in a 4% loading 12% running Tris-HCl gel. The proteins were then transferred to a nitrocellulose paper then blocked with a 5% milk Tris-buffered solution for 1 hour. The proteins were then exposed to primary antibodies (Bcl-2 and Caspase-3) overnight. The nitrocellulose paper was then exposed to Pico Chemilluminescent for 5 min and the protein expression was recorded. After exposure, actin was quantified using the same method. Using ImageJ the levels of protein expression were quantified. A t-Test was used to analyze for statistical significance.

For a further assay, the system named is Bcl-2. Description: Western blot of building block components, Bcl-2 expression in Skmel-28 melanoma cells. The note with it: for Bcl-2 reduction or Caspase-3 increase: 500 nM, 1 μM, 25 μM and 50 μM. More on the design: key to Bcl-2 expression: X: a decrease in Bc1-2 expression for most of the concentrations and combinations tested as depicted in the table below. It counts as cell-based. The method, then:
as §1, §2, §3
In general terms: A western blot detects proteins with antibodies after separation by electrophoresis.

Assay [1] deals with Succinate Dehydrogenase (SDH) Subunit B. Description: Western blot, Succinate Dehydrogenase B in mitochondrial preparations. It counts as cell-based. Particulars: NCIE0808 Mitopreps, 50 uM, 3 h. The procedure: The above blots were stripped by incubating for 30 minutes with methanol, followed by two 10 minute washes with TBS-T, then 30 minutes of incubation with Stripping buffer at 50 deg C., and followed by two washes with 100 ml or more of TBS-T for 30′ each. The blots were scanned in laser scanner to check for complete stripping. The blots were activated with methanol for 5 seconds, washed with water for 5 minutes, and TBST for 15 minutes. The blots were blocked for 1 hour with 5% blocking reagent in TBS-T at room temperature and then washed 3 times with TBS-T (1×-15′; 2×5′ each) and probed with the primary antibody for PKM2, SDHB or SDHC in 5% BSA in TBS-T by incubation overnight at 4 deg C. with gentle shaking. The primary antibody for SDHC (ABNOVA H00006391-MO2; antimouse) was at 1:500 dilution. The primary antibody for SDHB was from Abcam ab4714-200; antimouse; at 1:1000 dilution. The primary antibody for Pyruvate Kinase M2 (PKM2) was from Novus Biologicals H00005315-D0IP; antirabbit; at 1:500 dilution. After incubation with primary antibodies, the membranes were washed 3 times with TBS-T (1×-15′; 2×5′ each) and probed with the secondary antibody (SDHB & C antimouse; and PKM2 antirabbit; 1:10,000 dilution) for 1 h on the orbital tilting shaker at room temperature. After 1 h of incubation, the blots were washed 3 times with TBS-T (1×-15′; 2×5′ each) and incubated with ECF reagent for 5 minutes and then each blot scanned with 5100 Fuji Laser scanner at 25 uM resolution, 16 bit, green laser, at 400V and at 500 V.

The next assay relates to cancer cells. Particulars: cited from earlier work.
The test system of a further assay is HDFa cells. Description: Extracellular acidification rate (ECAR), SeaHorse XF analyzer. The format is cell-based, human. The note with it: HDFa. The source says: Environmental influencers (e.g., MIMs or Epi-shifters) may also be identified by changes in cellular energetics. One example of the measurement of cellular energetics are the real-time measures of the consumption of molecular oxygen and/or the change in pH of the media of a cell culture. For example, the ability of a potential epi-shifter to modulate the metabolic state of a cell may be analyzed using, for example, the XF24 Analyzer (Seahorse, Inc.). This technology allows for real time detection of oxygen and pH changes in a monolayer of cells in order to evaluate the bioenergetics of a cell microenvironment. The XF24 Analyzer measures and compares the rates of oxygen consumption (OCR), which is a measure of aerobic metabolism, and extracellular acidification (ECAR), which is a measure of glycolysis, both key indicators of cellular energetics.
(SeaHorse Biosciences Inc, North Billerica, Mass.).
In this experiment, the OCR and extracellular acidification rate (ECAR) in normal cells lines were obtained in the presence and absence of CoQ10 to determine baseline values. It was observed that in its native nutrient environment, the basal OCR rates in normal cells lines are different, and are usually a function of the physiological roles of the cells in the body.
Table 51 below describes the ECAR values (mpH/min) in HDFa cells in the presence or absence of CoQ10 under normoxic and hypoxic conditions at 5.5 mM and 22 mM glucose.

Take `NC(Cc1ccccc1)C(=O)O` (racemic) [DL-Phenylalanine]: the Caspase-3 expression result in the assay with Caspase-3 (3 hours, concentration not stated (5, 25, 100 μM tested)) is “statistically significant increase”. In the assay with Bcl-2 (24 hours, concentration not stated (5, 25, 100 μM tested)), the Bcl-2 expression entry is on record as “statistically significant decrease”.

As to `NC(Cc1ccc(O)cc1)C(=O)O` (racemic) [DL-Tyrosine], the Caspase-3 expression entry in the assay on Caspase-3 (5 μM and 15 μM, 12 hours) is recorded as “increase”. The Bcl-2 expression result is “statistical decrease” in the assay with Bcl-2 (1 μM and 15 μM, 12 hours); “statistical decrease” with Bcl-2 (5 μM, 24 hour (DL-Tyrosine series)).

Regarding `O=C(O)C(=O)Cc1ccc(O)cc1` [4-Hydroxy-phenylpyruvate], the Caspase-3 expression result in the assay on Caspase-3 (5 μM and 15 μM, 12 hours) is recorded as “significant increase”. Also, in the assay on Bcl-2 (5 μM and 15 μM, 24 hours), the Bcl-2 expression result was “significant reduction”.

In the case of `CC(=O)SCCNC(=O)CCNC(=O)[C@H](O)C(C)(C)COP(=O)(O)OP(=O)(O)OC[C@H]1O[C@@H](n2cnc3c(N)ncnc32)[C@H](O)[C@@H]1OP(=O)(O)O` [Acetyl-CoA], the “Bcl-2 reduction or Caspase-3 increase” value in the assay on Bcl-2 is recorded as “no significant observed reduction in Bcl-2 or increase in Caspase-3 expression”.

Consider `CC(=O)NCC(=O)O` [Acetylglycine], for which the Bcl-2 expression result was “significant decrease” in the assay with Bcl-2 (5 μM and 25 μM, 12 hours); “significant decrease” with Bcl-2 (100 μM, 24 hour).

As to `COC1=C(OC)C(=O)C(C/C=C(\C)CC/C=C(\C)CC/C=C(\C)CC/C=C(\C)CC/C=C(\C)CC/C=C(\C)CC/C=C(\C)CC/C=C(\C)CC/C=C(\C)CCC=C(C)C)=C(C)C1=O` [Coezyme Q10], in assay [1], the “Succinate Dehydrogenase B Average Normalized Volume” value is on record as 634.

For the compound `N[C@H](Cc1ccccc1)C(=O)O` [D-Phenylalanine], the Caspase-3 expression result with Caspase-3 (5 μM and 100 μM, 6 hours) is given as “significant increase”. Also, the Bcl-2 expression entry in the assay with Bcl-2 (5 μM and 25 μM, 3 hours) was “significant reduction”; with Bcl-2 (5 μM, 25 μM and 100 μM, 6 hours), “significant reduction”.

For `N[C@H](Cc1ccc(O)cc1)C(=O)O` [D-Tyrosine], the Caspase-3 expression result is reported as “increase” with Caspase-3 (1 μM, 12 and 24 hour); “significantly increased” in the assay on Caspase-3 (5 μM, 3, 12 and 24 time periods). The Bcl-2 expression result in the assay with Bcl-2 (5 μM and 15 μM, 12 and 24 hours) is given as “reduction”.

Take `N[C@@H](Cc1ccccc1)C(=O)O` [L-Phenylalanine]: the Caspase-3 expression result in the assay on Caspase-3 (25 μM, 12 hours) is recorded as “statistically significant increase”. For the same compound, the Bcl-2 expression result in the assay on Bcl-2 (5 μM, 3 hr) is “X”; in the assay with Bcl-2 (5 μM, 6 hours), “statistically significant decrease”; in the assay with Bcl-2 (25 μM, 3 hr) it was “X”; in the assay with Bcl-2 (25 μM, 6 hr), “X”; in the assay with Bcl-2 (25 μM, 12 hours), “statistically significant decrease”; in the assay on Bcl-2 (100 μM, 3 hours and 12 hours incubation), “statistically significant decrease”. Besides, the Bcl-2 expression entry was “X” in the assay with Bcl-2 (100 μM, 3 hr); “X” with Bcl-2 (100 μM, 6 hr); “X” in the assay with Bcl-2 (100 μM, 24 hr).

Take `N[C@@H](Cc1ccc(O)cc1)C(=O)O` [L-Tyrosine]: the Caspase-3 expression entry with Caspase-3 (500 nM, 12 hours) is “statistically significant increase”. The Bcl-2 expression entry was “statistically significant decrease” in the assay on Bcl-2 (5 μM, 24 hours); “statistically significant decrease” in the assay on Bcl-2 (500 μM and 5 μM (so in the source), 24 hours).

In the case of `C[C@@](O)(CCO)CC(=O)O` [Mevalonic Acid], the “Bcl-2 reduction or Caspase-3 increase” value with Bcl-2 is on record as “no significant reduction in Bcl-2 expression or an increase in Caspase-3 expression”.

On to `CC(C)(CO)[C@@H](O)C(=O)NCCCO` [Panthenol], for which the Bcl-2 expression entry with Bcl-2 (25 μM) is on record as “significant reduction”.

On to `Cc1ncc(CO)c(CO)c1O` [Pyridoxine], for which, in the assay with Bcl-2 (24 hours (5, 25, 100 μM tested)), the Bcl-2 expression result is “significant reduction”.

Turning to `COc1cc(C(O)C(=O)O)ccc1O` (centres unmarked) [VMA, 3-methoxy-4-hydroxymandelate], in the assay on Bcl-2 (100 nM to 100 μM), the “apoptotic effect (Bcl-2/Caspase-3 Western blot)” value was “no statistically significant apoptotic effect” and the “trend of Bcl-2 expression” value is recorded as “downward trend”.

Take `COc1cc(C(=O)O)ccc1O` [Vanillic Acid, Vanillic acid]: the Caspase-3 expression result in the assay on Caspase-3 (15 μM, 24 hours) is given as “significant increase”. The Bcl-2 expression entry in the assay on Bcl-2 (500 nM and 5 μM, 24 hour) is reported as “significantly reduce”; with Bcl-2 (15 μM, 3 hours), “reduction”.

As to `C=C1/C(=C\C=C2/CCC[C@]3(C)[C@@H]([C@H](C)CCCC(C)(C)O)CC[C@@H]23)C[C@@H](O)C[C@@H]1O` [Vitamin D3, 1α, 25-dihydroxyvitamin D3], in the assay on cancer cells (reported (Deeb et al. 2007)), the “expression of anti-apoptotic proteins BCL2 and BCL-XL” value is recorded as “repressing the expression”; the “expression of pro-apoptotic proteins (BAX, BAK and BAD)” value is recorded as “inducing the expression”; the “gene transcription of cyclin-dependent kinase inhibitor p21WAFI/CIPI” value is given as “induce gene transcription”. The “expression of vascular endothelial growth factor (VEGF)” value in the assay on cancer cells (reported (Masuda and Jones, 2006)) is reported as “inhibit the expression”.

Take `COC1=C(OC)C(=O)C(C/C=C(\C)CC/C=C(\C)CC/C=C(\C)CC/C=C(\C)CC/C=C(\C)CC/C=C(\C)CC/C=C(\C)CC/C=C(\C)CC/C=C(\C)CCC=C(C)C)=C(C)C1=O` [compound 31510]: the ECAR was 5 mpH/min in the assay on HDFa cells (Hypoxia (5.5 mM), 50 μM); 5 mpH/min in the assay on HDFa cells (Hypoxia (5.5 mM), 100 μM); 6 mpH/min in the assay with HDFa cells (Hypoxia (22 mM), 50 μM); 8 mpH/min with HDFa cells (Hypoxia (22 mM), 100 μM); 6 mpH/min with HDFa cells (Normoxia (5.5 mM), 50 μM); 6 mpH/min in the assay with HDFa cells (Normoxia (5.5 mM), 100 μM). In addition, the ECAR with HDFa cells (Normoxia (22 mM), 50 μM) is reported as 5 mpH/min; with HDFa cells (Normoxia (22 mM), 100 μM) it was 5 mpH/min.
